The nature of data set [1]: Solubility of curcumin in water and methanol. Format: physicochemical. An excerpt: In a first experiment curcumin powder, purchased from Sigma Aldrich, was used as the organic source material. The curcumin powder was formed into a pellet of target material by compression in a 0.5 inch in diameter mold using three tons of pressure. The curcumin pellet was then ablated according to the present invention using deionized water as the liquid. The flow rate of the liquid in the container was about 80 milliliters per second. The curcumin pellet was ablated using an ultrafast pulsed laser having a wavelength of 1045 nanometers, using a pulse duration of 500 femtoseconds, a pulse energy of 1 microJoules, a power of 1 W and a pulse repetition rate of 1 MHz. The laser focus spot size was about 30 micrometers in diameter and the fluence is calculated at about 0.14 Joules/cm^2. The frequency of the vibrating mirror was 50 Hz with a 4 millimeter trace for 0.4 meters per second. […] The hydrocolloidal contains some large particles as evidenced by the spread of the peak and the background absorbance of the curve. The y-axis is the absorption and the x-axis is the wavelength. […] In addition, 0.1 milliliters of the curcumin nanoparticle hydrocolloidal prepared according to the present invention was mixed with 1.0 milliliters of methanol. […]

For data set [2] the following is noted: background statement; cited from earlier work.

Where two headings read alike, the source gives them in different places.

On to `COc1cc(C=CC(=O)CC(=O)C=Cc2ccc(O)c(OC)c2)ccc1O` [curcumin, 1,7-bis(4-hydroxy-3-methoxyphenyl)-1,6-heptadiene-3,5-dione], for which the solubility in methanol result in data set [1] (methanol, powder dissolved at 2.5×10^−5 M) was “dissolvable in methanol”. The figures for the solubility in water result in data set [1] (water) and in data set [2] were “does not dissolve in water” and “not water soluble”, respectively.

(Values after patent US8992815B2, “Production of organic compound nanoparticles with high repetition rate ultrafast pulsed laser ablation in liquids” (IMRA America, Inc., priority 2010, dated 2015).)
